Results: US9700052B2, “Methods and compositions comprising steroid honey bee feeding inhibitors” (Iowa State University Research Foundation, Inc., priority 2015, dated 2017)

Tested on: honey bees, Apis mellifera
Experiment: Artificial styrofoam flower foraging assay with 20% sucrose nectar tube
Type: in vivo
Settings: for Consumed, ml (nectar) / # feeding: n = 4
Procedure: To determine how the phytoecdysteroid inhibits bee foraging, we utilized artificial flowers so that the compounds can be added to a nectar source or sprayed on the surface of the artificial flower. The artificial flowers were made from green florist styrofoam blocks (12 cm^2) and petals made from blue and green tape. In the center of the styrofoam block a 2 ml test tube was inserted that contained a 20% sucrose solution in water as a substitute for nectar. The same array of holders was used as in the previous study (FIG. 2).
To determine if the repellent activity occurs in a concentration dependent manner we utilized the artificial flowers treated with various concentrations of the steroids in the nectar tube. In addition to observing the number of honey bees feeding from the nectar tube we measured the amount of nectar consumed after the observation period of about 45 min. The purified phytoecdysteroid was effective at 2.5 and 0.4 mg/ml in reducing the number of honey bees feeding on the nectar compared to lower concentrations. […] The pure 20-OH-ecdysone was also inhibitory at 1 mg/ml and 0.2 mg/ml with more foraging at the lower concentration. Cucurbitacin B was inhibitory at 0.5 mg/ml but not at 0.1 mg/ml.

[1] = 0.01 mg/ml in 2 ml nectar tube, about 45 min
[2] = 0.01 mg/ml in nectar tube, about 45 min
[3] = 0.1 mg/ml in 2 ml nectar tube, about 45 min
[4] = 0.1 mg/ml in nectar tube, about 45 min

Q: For `CC(C)(O)CC[C@@H](O)[C@](C)(O)[C@H]1CC[C@@]2(O)C3=CC(=O)[C@@H]4C[C@@H](O)[C@@H](O)C[C@]4(C)[C@H]3CC[C@]12C` [20-hydroxyecdysone], which “Consumed, ml (nectar)” value [1] is on record?
A: 1.1 mL

Q: And the “# feeding” value [2]?
A: 37

Q: And the “Consumed, ml (nectar)” value [3]?
A: 1.7 mL

Q: And the “# feeding” value [4]?
A: 56

Q: And the “Consumed, ml (nectar)” value (0.2 mg/ml in 2 ml nectar tube, about 45 min)?
A: 0.25 mL

Q: What about the “inhibition of honey bees feeding on the nectar” value (from here on “inhibition of honey bees feeding”) (0.2 mg/ml in nectar tube) of the same compound?
A: inhibitory

Q: And the “# feeding” value (0.2 mg/ml in nectar tube, about 45 min)?
A: 17

Q: And the “Consumed, ml (nectar)” value (1 mg/ml in 2 ml nectar tube, about 45 min)?
A: 0.05 mL

Q: And the “inhibition of honey bees feeding” value (1 mg/ml in nectar tube)?
A: inhibitory

Q: And the “# feeding” value (1 mg/ml in nectar tube, about 45 min)?
A: 2

Q: How did the “Consumed, ml (nectar)” value [1] turn out when `CC(=O)OC(C)(C)/C=C/C(=O)[C@](C)(O)[C@H]1C(O)C[C@@]2(C)[C@@H]3CC=C4[C@H](CC(O)C(=O)C4(C)C)[C@@]3(C)C(=O)C[C@]12C` (stereo partly drawn) [Cucurbitacin B] was run?
A: 1.9 mL

Q: What about the “# feeding” value [2] of the same compound?
A: 4

Q: And the “Consumed, ml (nectar)” value [3]?
A: 1.2 mL

Q: What about the “inhibition of honey bees feeding” value (0.1 mg/ml in nectar tube) of the same compound?
A: not

Q: And the “# feeding” value [4]?
A: 3

Q: And the “Consumed, ml (nectar)” value (0.5 mg/ml in 2 ml nectar tube, about 45 min)?
A: 0.3 mL

Q: And the “inhibition of honey bees feeding” value (0.5 mg/ml in nectar tube)?
A: inhibitory

Q: What about the “# feeding” value (0.5 mg/ml in nectar tube, about 45 min) of the same compound?
A: 8

Q: For `C[C@H]([C@H](O)CCC(C)(C)O)[C@H]1CC[C@@]2(O)C3=CC(=O)[C@@H]4C[C@@H](O)[C@@H](O)C[C@]4(C)[C@H]3CC[C@]12C` [Pure ecdsyone, ecdysone], which “inhibition of honey bees feeding” value (0.01 mg/ml in nectar tube) is on record?
A: not

Q: And the “inhibition of honey bees feeding” value (0.1 mg/ml in nectar tube)?
A: inhibitory

Q: And the “inhibition of honey bees feeding” value (1 mg/ml in nectar tube)?
A: inhibitory

Q: What about the “Consumed, ml (nectar)” value (Table 5, 0.01 mg/ml in 2 ml nectar tube) of the same compound?
A: 0.8 mL

Q: What about the “# feeding” value (Table 5, 0.01 mg/ml in nectar tube) of the same compound?
A: 24

Q: What about the “Consumed, ml (nectar)” value (Table 5, 0.1 mg/ml in 2 ml nectar tube) of the same compound?
A: 0.3 mL

Q: What about the “# feeding” value (Table 5, 0.1 mg/ml in nectar tube) of the same compound?
A: 0

Q: What about the “Consumed, ml (nectar)” value (Table 5, 1 mg/ml in 2 ml nectar tube) of the same compound?
A: 0.2 mL

Q: And the “# feeding” value (Table 5, 1 mg/ml in nectar tube)?
A: 0
